From US10570121B2, “Substituted dihydroisoquinolinone compounds” (priority 2014, dated 2020)
Like-named read-outs stand apart in the source and are kept apart here.

Columns and labels:
WT EZH2 = WT EZH2 (Homo sapiens (Human), UniProt Q15910); test: WT EZH2 nucleosome assay (10X SAM, high SAM conditions); format: biochemical; conditions: 15 uM SAM, Ki app from competitive inhibition fit
Experimental: (§1) The genes for EZH2, EED, SUZ12, and RBBP4 proteins were cloned into pBacPAK9 vectors (Clontech). RBBP4 was FLAG tagged on the N-terminal end. The baculovirus expressions of these proteins were used to co-infect SF9 insect cells. Insect cell pellets were lysed in a buffer containing 25 mM Tris pH8.0, 300 mM NaCl, 0.5 mM TCEP, complete EDTA-free protease inhibitor (Roche), 0.1% NP-40. The supernatant from the lysate was incubated with FLAG® M2 antibody resin (Sigma). The resin was washed on the chromatography column and eluted with 0.2 mg/ml FLAG peptide. The elute was incubated with omnicleave nucleases (Epicentre Technologies) at 4° C. overnight, then concentrated and loaded onto a Superdex 200 (GE Healthcare) column. The Superdex 200 column was eluted with 25 mM Tris pH8.0, 150 mM NaCl, 0.5 mM TCEP. Fractions containing the PRC2 complex were pooled.
(§2) A. Compound preparation • 1.
(§3) B. Reagent preparation • 1. […] Dilute TCA to 20% in DI water
(§4) C. Enzyme reaction • 1. […] Some compounds were tested under high SAM conditions.
(§5) D. Data analysis • 1. IC50 values were determined by fitting the data to a 4-parameter IC50 equation using proprietary curve fitting software. • 2. For compounds tested under high SAM conditions, Ki^app values were obtained by fitting the dose response curve to a model for competitive inhibition using proprietary curve fitting software. Preparation of HeLa Oligonucleosomes: Reagents • Cell Pellet: 15 L HeLa S3 (Accelgen)+6 L HeLa S3 (in house) • Mnase (Worthington Biochemicals) Equipment • SW-28 Rotor • Dounce Homogenizer/B Pestle Buffers • Lysis: 20 mM Hepes pH 7.5, 0.25M Sucrose, 3 mM MgCl2, 0.5% Nonidet P-40, 0.5 mM TCEP, 1 Roche Protease Tablet • B: 20 mM Hepes pH7.5, 3 mM MgCl2, 0.5 mM EDTA, 0.5 mM TCEP, 1 Roche Protease Tablet • MSB: 20 mM Hepes pH7.5, 0.4 M NaCl, 1 mM EDTA, 5% v/v Glycerol, 0.5 mM TCEP, 0.2 mM PMSF • LSB: 20 mM Hepes pH7.5, 0.1M NaCl, 1 mM EDTA, 0.5 mM TCEP, 0.2 mM PMSF • NG: 20 mM Hepes pH7.5, 1 mM EDTA, 0.4 m NaCl, 0.2 mM PMSF, 0.5 mM TCEP • Storage: 20 mM Hepes pH7.5, 1 mM EDTA, 10% Glycerol, 0.2 mM PMSF, 0.5 mM TCEP Protocol

EZH2 Mutant Y641N = EZH2 Mutant Y641N (Homo sapiens (Human), UniProt Q15910, Y641N); test: EZH2 Mutant Y641N nucleosome assay; format: biochemical; conditions: PRC2 4-protein complex 6 nM, 1.5 μM SAM, HeLa oligonucleosomes
EZH2 Mutant Y641N, sequence (Q15910 whole entry Y641N, looked up): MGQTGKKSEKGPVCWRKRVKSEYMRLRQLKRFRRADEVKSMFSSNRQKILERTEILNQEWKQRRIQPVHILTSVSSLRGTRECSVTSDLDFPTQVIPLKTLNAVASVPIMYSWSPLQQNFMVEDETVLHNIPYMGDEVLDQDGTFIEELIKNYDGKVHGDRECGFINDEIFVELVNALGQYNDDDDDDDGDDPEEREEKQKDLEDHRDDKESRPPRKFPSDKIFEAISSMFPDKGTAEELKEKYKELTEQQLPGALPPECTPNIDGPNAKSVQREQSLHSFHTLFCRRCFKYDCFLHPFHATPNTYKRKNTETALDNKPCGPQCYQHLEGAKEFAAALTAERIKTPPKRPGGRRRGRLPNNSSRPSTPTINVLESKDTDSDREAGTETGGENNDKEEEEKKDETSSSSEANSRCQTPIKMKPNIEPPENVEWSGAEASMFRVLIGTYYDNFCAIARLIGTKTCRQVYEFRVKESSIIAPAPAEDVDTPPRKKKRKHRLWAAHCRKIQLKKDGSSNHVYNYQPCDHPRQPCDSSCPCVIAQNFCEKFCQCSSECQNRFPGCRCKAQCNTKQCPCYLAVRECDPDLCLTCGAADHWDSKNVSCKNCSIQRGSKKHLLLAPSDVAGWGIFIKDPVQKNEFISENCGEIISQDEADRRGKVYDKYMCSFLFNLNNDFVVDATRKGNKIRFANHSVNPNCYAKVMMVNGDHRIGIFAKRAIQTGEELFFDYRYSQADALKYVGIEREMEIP
EZH2 Mutant Y641N, sequence (O75530 whole entry partner, looked up): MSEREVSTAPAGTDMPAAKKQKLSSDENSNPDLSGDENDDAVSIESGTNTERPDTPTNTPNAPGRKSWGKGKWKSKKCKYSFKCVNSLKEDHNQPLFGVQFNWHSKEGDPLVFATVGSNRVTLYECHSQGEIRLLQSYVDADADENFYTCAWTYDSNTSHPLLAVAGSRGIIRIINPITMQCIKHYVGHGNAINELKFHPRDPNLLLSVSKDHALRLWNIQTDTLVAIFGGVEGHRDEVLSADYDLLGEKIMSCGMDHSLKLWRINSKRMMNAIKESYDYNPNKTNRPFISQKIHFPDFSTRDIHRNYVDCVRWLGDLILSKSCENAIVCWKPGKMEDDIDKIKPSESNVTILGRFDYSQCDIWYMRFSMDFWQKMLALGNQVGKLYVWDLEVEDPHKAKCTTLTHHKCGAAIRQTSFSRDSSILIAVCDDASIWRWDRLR
EZH2 Mutant Y641N, sequence (Q15022 whole entry partner, looked up): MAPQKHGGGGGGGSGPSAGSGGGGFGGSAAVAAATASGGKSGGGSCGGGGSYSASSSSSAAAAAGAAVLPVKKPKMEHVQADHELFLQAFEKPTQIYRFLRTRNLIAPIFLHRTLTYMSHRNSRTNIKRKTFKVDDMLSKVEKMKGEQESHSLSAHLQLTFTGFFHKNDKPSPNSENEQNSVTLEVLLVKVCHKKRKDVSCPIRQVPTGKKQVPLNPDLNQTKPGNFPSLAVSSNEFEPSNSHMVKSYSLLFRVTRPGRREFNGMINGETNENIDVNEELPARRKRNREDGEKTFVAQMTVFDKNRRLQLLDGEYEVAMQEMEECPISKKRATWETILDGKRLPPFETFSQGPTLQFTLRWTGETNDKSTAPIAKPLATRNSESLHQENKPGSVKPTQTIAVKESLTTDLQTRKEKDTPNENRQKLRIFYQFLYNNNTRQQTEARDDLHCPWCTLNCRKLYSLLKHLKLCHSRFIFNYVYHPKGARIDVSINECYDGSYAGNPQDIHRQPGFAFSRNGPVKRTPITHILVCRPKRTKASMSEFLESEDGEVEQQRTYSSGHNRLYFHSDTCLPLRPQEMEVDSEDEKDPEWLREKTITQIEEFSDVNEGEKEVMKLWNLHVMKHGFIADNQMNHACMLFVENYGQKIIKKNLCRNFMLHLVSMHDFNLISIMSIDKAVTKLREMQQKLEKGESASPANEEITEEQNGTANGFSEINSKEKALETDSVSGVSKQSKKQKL
EZH2 Mutant Y641N, sequence (Q09028 whole entry partner, looked up): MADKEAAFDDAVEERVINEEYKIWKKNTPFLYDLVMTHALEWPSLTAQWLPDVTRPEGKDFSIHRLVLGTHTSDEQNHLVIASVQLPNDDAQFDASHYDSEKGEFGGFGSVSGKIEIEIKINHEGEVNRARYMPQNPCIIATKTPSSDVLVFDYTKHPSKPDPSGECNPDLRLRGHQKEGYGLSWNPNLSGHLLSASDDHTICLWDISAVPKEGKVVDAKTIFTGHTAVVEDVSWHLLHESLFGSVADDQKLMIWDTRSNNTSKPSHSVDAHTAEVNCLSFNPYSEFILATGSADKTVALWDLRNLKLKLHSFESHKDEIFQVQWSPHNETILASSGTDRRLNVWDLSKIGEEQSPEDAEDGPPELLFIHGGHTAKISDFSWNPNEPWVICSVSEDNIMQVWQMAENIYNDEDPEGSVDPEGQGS
Experimental: as §1, §2, §3, §4, §5

[1] = read-out: WT EZH2 Nucleosome assay (10X SAM) Ki
[2] = read-out: EZH2 Mutant Y641N Nucleosome assay IC50
[3] = WT EZH2 Nucleosome assay (10X SAM) Ki (μM)
[4] = EZH2 Mutant Y641N Nucleosome assay IC50 (μM)

WT EZH2, sequence (Q15910 whole entry, looked up): as the sequence (Q15910 whole entry Y641N, looked up) above, with N641Y counted along it
WT EZH2, sequence (O75530 whole entry partner, looked up): as the sequence (O75530 whole entry partner, looked up) above
WT EZH2, sequence (Q15022 whole entry partner, looked up): as the sequence (Q15022 whole entry partner, looked up) above
WT EZH2, sequence (Q09028 whole entry partner, looked up): as the sequence (Q09028 whole entry partner, looked up) above

Structure (SMILES)	Ki (WT EZH2; [1]) [µM]	IC50 (EZH2 Mutant Y641N; [2]) [µM]	Ki (WT EZH2; [3]) [µM]	IC50 (EZH2 Mutant Y641N; [4]) [µM]
COC(c1ccc2c(c1Cl)C(=O)N(Cc1c(C)cc(C)[nH]c1=O)CC2)C1CCOC1 (single isomer, unassigned) [Example 134]	0.131	1.93	–	–
COC(c1ccc2c(c1Cl)C(=O)N(Cc1c(C)cc(C)[nH]c1=O)CC2)C1CCOC1 (single isomer, unassigned) [Example 135]	0.002	0.014	–	–
COC(c1cc(Cl)c2c(c1Cl)C(=O)N(Cc1c(C)cc(C)[nH]c1=O)CC2)C1CCN(C)CC1 (single isomer, unassigned) [Example 136]	–	–	0.0001	0.003
COC(c1cc(Cl)c2c(c1Cl)C(=O)N(Cc1c(C)cc(C)[nH]c1=O)CC2)C1CCN(C)CC1 (single isomer, unassigned) [Example 137]	–	–	0.133	1.17
COC(c1cc(Br)c2c(c1Cl)C(=O)N(Cc1c(C)cc(C)[nH]c1=O)CC2)C1CN(C(=O)CO)C1 (single isomer, unassigned) [Example 138]	0.046	0.249	–	–
COC(c1cc(Br)c2c(c1Cl)C(=O)N(Cc1c(C)cc(C)[nH]c1=O)CC2)C1CN(C(=O)CO)C1 (single isomer, unassigned) [Example 139]	0.0005	0.0085	–	–
COC(c1cc(Cl)c2c(c1Cl)C(=O)N(Cc1c(C)cc(C)[nH]c1=O)CC2)[C@H](C)CO (single isomer, unassigned) [Example 140]	0.103	1.17	–	–
COC(c1cc(Cl)c2c(c1Cl)C(=O)N(Cc1c(C)cc(C)[nH]c1=O)CC2)[C@H](C)CO (single isomer, unassigned) [Example 141]	0.002	0.016	–	–
COC(c1cc(Cl)c2c(c1Cl)C(=O)N(Cc1c(C)cc(C)[nH]c1=O)CC2)[C@@H](C)CO (single isomer, unassigned) [Example 142]	0.008	0.109	–	–
COC(c1cc(Cl)c2c(c1Cl)C(=O)N(Cc1c(C)cc(C)[nH]c1=O)CC2)[C@@H](C)CO (single isomer, unassigned) [Example 143]	0.276	1.77	–	–
COc1cc(C)[nH]c(=O)c1CN1CCc2c(C)cc(C(OC)C3COC3)c(Cl)c2C1=O (single isomer, unassigned) [Example 144]	0.0002	0.005	–	–
COc1cc(C)[nH]c(=O)c1CN1CCc2c(C)cc(C(OC)C3COC3)c(Cl)c2C1=O (single isomer, unassigned) [Example 145]	0.07	0.272	–	–
COC(c1cc(Br)c2c(c1Cl)C(=O)N(Cc1c(C)cc(C)[nH]c1=O)CC2)C1CCN(C)CC1 (single isomer, unassigned) [Example 146]	0.0001	0.0035	–	–
COC(c1cc(Br)c2c(c1Cl)C(=O)N(Cc1c(C)cc(C)[nH]c1=O)CC2)C1CCN(C)CC1 (single isomer, unassigned) [Example 147]	0.128	0.543	–	–
COC(c1cc(Cl)c2c(c1Cl)C(=O)N(Cc1c(C)cc(C)[nH]c1=O)CC2)C1CCS(=O)(=O)C1 (single isomer, unassigned) [Example 148]	0.056	0.439	–	–
COC(c1cc(Cl)c2c(c1Cl)C(=O)N(Cc1c(C)cc(C)[nH]c1=O)CC2)C1CCS(=O)(=O)C1 (single isomer, unassigned) [Example 149]	0.539	2.27	–	–
COC(c1cc(Cl)c2c(c1Cl)C(=O)N(Cc1c(C)cc(C)[nH]c1=O)CC2)C1CCS(=O)(=O)C1 (single isomer, unassigned) [Example 150]	0.0001	0.003	–	–
COC(c1cc(Cl)c2c(c1Cl)C(=O)N(Cc1c(C)cc(C)[nH]c1=O)CC2)C1CCS(=O)(=O)C1 (single isomer, unassigned) [Example 151]	0.0008	0.009	–	–
COC(c1cc(C)c2c(c1Cl)C(=O)N(Cc1c(C)cc(C)[nH]c1=O)CC2)C1CCN(C2COC2)CC1 (single isomer, unassigned) [Example 154]	0.0446	0.553	–	–

Structure (SMILES)	Ki (WT EZH2; [1]) [µM]	IC50 (EZH2 Mutant Y641N; [2]) [µM]	Ki (WT EZH2; [3]) [µM]	IC50 (EZH2 Mutant Y641N; [4]) [µM]
COC(c1cc(C)c2c(c1Cl)C(=O)N(Cc1c(C)cc(C)[nH]c1=O)CC2)C1CCN(C2COC2)CC1 (single isomer, unassigned) [Example 155]	0.0013	0.027	–	–
COC(c1cc(Cl)c2c(c1Cl)C(=O)N(Cc1c(C)cc(C)[nH]c1=O)CC2)C1CCN(C2COC2)CC1 (single isomer, unassigned) [Example 156]	–	–	0.375	1.71
CCOC(c1cc(Cl)c2c(c1Cl)C(=O)N(Cc1c(C)cc(C)[nH]c1=O)CC2)C1CS(=O)(=O)C1 (single isomer, unassigned) [Example 158]	–	–	0.578	5.13
COC(c1cc(Cl)c2c(c1Cl)C(=O)N(Cc1c(C)cc(C)[nH]c1=O)CC2)C1CCOC1 (single isomer, unassigned) [Example 160]	–	–	0.021	0.086
COC(c1cc(Cl)c2c(c1Cl)C(=O)N(Cc1c(C)cc(C)[nH]c1=O)CC2)C1CCOC1 (single isomer, unassigned) [Example 162]	–	–	0.148	2.97
[2H]C([2H])([2H])OC(c1cc(Cl)c2c(c1Cl)C(=O)N(Cc1c(C)cc(C)[nH]c1=O)CC2)C1CCN(C(=O)CO)CC1 (single isomer, unassigned) [Example 164]	–	–	0.2	1.97
COC(c1cc(Cl)c2c(c1Cl)C(=O)N(Cc1c(C)cc(C)[nH]c1=O)CC2)C1CCNCC1 (single isomer, unassigned) [Example 166]	0.0002	0.002	–	–
COC(c1cc(Cl)c2c(c1Cl)C(=O)N(Cc1c(C)cc(C)[nH]c1=O)CC2)C1CCNCC1 (single isomer, unassigned) [Example 167]	0.062	0.85	–	–
COC(c1cc(C)c2c(c1Cl)C(=O)N(Cc1c(C)cc(C)[nH]c1=O)CC2)C1CCN(C(=O)CO)CC1 (single isomer, unassigned) [Example 168]	0.0007	0.008	–	–
COC(c1cc(C)c2c(c1Cl)C(=O)N(Cc1c(C)cc(C)[nH]c1=O)CC2)C1CCN(C(=O)CO)CC1 (single isomer, unassigned) [Example 169]	0.0151	0.07	–	–
COC(c1cc(Cl)c2c(c1Cl)C(=O)N(Cc1c(C)cc(C)[nH]c1=O)CC2)C1CN(C(=O)[C@@H](C)O)C1 (single isomer, unassigned) [Example 170]	0.0008	0.014	–	–
COC(c1cc(Cl)c2c(c1Cl)C(=O)N(Cc1c(C)cc(C)[nH]c1=O)CC2)C1CN(C(=O)[C@@H](C)O)C1 (single isomer, unassigned) [Example 171]	0.328	2.63	–	–
COC(c1cc(Cl)c2c(c1Cl)C(=O)N(Cc1c(C)cc(C)[nH]c1=O)CC2)C1CN(C(=O)[C@H](C)O)C1 (single isomer, unassigned) [Example 172]	0.0008	0.012	–	–
COC(c1cc(Cl)c2c(c1Cl)C(=O)N(Cc1c(C)cc(C)[nH]c1=O)CC2)C1CN(C(=O)[C@H](C)O)C1 (single isomer, unassigned) [Example 173]	0.016	0.206	–	–
COC(c1cc(Cl)c2c(c1Cl)C(=O)N(Cc1c(C)cc(C)[nH]c1=O)CC2)C1CN(C)C1 (single isomer, unassigned) [Example 174]	0.0006	0.013	–	–
COC(c1cc(Cl)c2c(c1Cl)C(=O)N(Cc1c(C)cc(C)[nH]c1=O)CC2)C1CN(C)C1 (single isomer, unassigned) [Example 175]	0.085	1	–	–
COC(c1cc(Cl)c2c(c1Cl)C(=O)N(Cc1c(C)cc(C)[nH]c1=O)CC2)C1CN(S(C)(=O)=O)C1 (single isomer, unassigned) [Example 176]	0.0003	0.005	–	–
COC(c1cc(Cl)c2c(c1Cl)C(=O)N(Cc1c(C)cc(C)[nH]c1=O)CC2)C1CN(S(C)(=O)=O)C1 (single isomer, unassigned) [Example 177]	0.049	0.282	–	–
COC(c1cc(Cl)c2c(c1Cl)C(=O)N(Cc1c(C)cc(C)[nH]c1=O)CC2)C1CC(=O)N(C)C1 (single isomer, unassigned) [Example 179]	0.001	0.009	–	–
